Experimental data taken from US11000033B2, “Ketone or oxime compound, and herbicide” (NISSAN CHEMICAL CORPORATION, priority 2014, dated 2021).

Columns and labels:
Format in all cases: in vivo
[1] = tested on: soybean; test: Test Example 5: effect on crop by foliage application, plastic box (symbol d); settings: 320 g/ha, 3 weeks after application
How it was run: (§1)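 Soil: sterilized diluvial. Container: plastic box, 21 × 13 cm, 7 cm deep. Sowing: spot-like, ~1.5 cm cover. Growth: greenhouse, 25° C. to 30° C.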

[2] = tested on: Alopecurus myosuroides; test: Test Example 4: herbicidal effect by soil treatment (symbol J); settings: application herbicide amount 320 g/ha
How it was run: (§2)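 Seeds were sown in sterilized diluvial soil, covered with about 1.5 cm of soil, and the soil surface was sprayed with a water-diluted emulsion of the compound at a predetermined rate. Plants grew in a greenhouse at 25° C. to 30° C.; effects were scored visually 3 weeks after application.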

[3] = tested on: Leptochloa chinensis; test: Test Example 3: herbicidal effect by foliage application, Wagner pot (symbol D); settings: application herbicide amount 320 g/ha, Table 24
How it was run: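 Herbicidal activity was rated three weeks after a foliar spray of diluted emulsion concentrate, applied at a predetermined dose to plants grown for 14 days from seed in waterlogged alluvial soil within a 25–30 °C greenhouse.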

[4] = tested on: wheat; test: Test Example 5: effect on crop by foliage application, plastic box (symbol e); settings: 320 g/ha, 3 weeks after application
How it was run: as §1

[5] = tested on: wheat; test: Test Example 4: effect on crop by soil treatment (symbol e); settings: application herbicide amount 320 g/ha
How it was run: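 Diluvial soil (sterilized) in boxes; seeds placed spot-wise alongside weed species; ~1.5 cm covering soil. Greenhouse, 25–30° C.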

[6] = tested on: Galium spurium; test: Test Example 5: herbicidal effect by foliage application, plastic box (symbol Q); settings: 320 g/ha, 3 weeks after application
How it was run: (§3)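 Greenhouse foliar test: seedlings at 14 days, grown 25° C. to 30° C. in sterilized diluvial soil; compound applied as an aqueous dilution of an emulsion; response read 3 weeks after spraying.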

[7] = tested on: Digitaria ciliaris; test: Test Example 5: herbicidal effect by foliage application, plastic box (symbol F); settings: 320 g/ha, 3 weeks after application
How it was run: as §3

[8] = tested on: corn; test: Test Example 5: effect on crop by foliage application, plastic box (symbol c); settings: 320 g/ha, 3 weeks after application
How it was run: as §1

[9] = tested on: Alopecurus myosuroides; test: Test Example 5: herbicidal effect by foliage application, plastic box (symbol J); settings: 320 g/ha, 3 weeks after application
How it was run: as §3

[10] = tested on: Scirpus juncoides; test: Test Example 2: herbicidal activity, application during weed generation in submerged conditions (symbol B); settings: Table 23; application herbicide amount 320 g/ha; grade 0-5 by criteria of Test Example 1
How it was run: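 Visual herbicidal ratings, taken three weeks after dosing, reflect post-emergence water-surface application to seedlings at one to two leaves. Conditions: co-sown weeds in alluvial soil flooded to 4 cm, greenhouse held at 25° C. to 30° C.; compound given as water-diluted emulsion at a fixed herbicide amount.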

[11] = tested on: transplanted rice plant; test: Test Example 1: effect on crop, application before weed generation in submerged conditions (symbol a); settings: application herbicide amount 320 g/ha
How it was run: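 Rice at 2.5 leaf stage transplanted into submerged soil (4 cm depth) sown with three weed species; herbicide applied before weed emergence.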

[12] = tested on: Lolium multiflorum Lam.; test: Test Example 5: herbicidal effect by foliage application, plastic box (symbol K); settings: 320 g/ha, 3 weeks after application
How it was run: as §3

[13] = tested on: Avena fatua; test: Test Example 4: herbicidal effect by soil treatment (symbol I); settings: application herbicide amount 320 g/ha
How it was run: as §2

[14] = tested on: Veronica persica; test: Test Example 4: herbicidal effect by soil treatment (symbol R); settings: application herbicide amount 320 g/ha
How it was run: as §2

Row | Structure (SMILES) | d: soybean, effect on crop grade [1] | Herbicidal effect grade, J: Alopecurus myosuroides [2] | D (Leptochloa chinensis) herbicidal effect grade [3] | e: wheat, effect on crop grade [4] | Effect on crop grade, e: wheat [5] | Q: Galium spurium, herbicidal effect grade [6] | F: Digitaria ciliaris, herbicidal effect grade [7] | c: corn, effect on crop grade [8] | J: Alopecurus myosuroides, herbicidal effect grade [9] | Herbicidal effect grade, B: Scirpus juncoides [10] | a (transplanted rice plant) effect on crop grade [11] | K: Lolium multiflorum Lam., herbicidal effect grade [12] | Herbicidal effect grade, I: Avena fatua [13] | Herbicidal effect grade, R: Veronica persica [14] | J: Alopecurus myosuroides, herbicidal effect grade [2] | e: wheat, effect on crop grade [5] | I: Avena fatua, herbicidal effect grade [13] | R: Veronica persica, herbicidal effect grade [14]
1 | CON=C(CC1CC(O)=C(c2c(C)cc(-c3ccccc3)cc2C)C1=O)C1CC1 (mixture of isomers) [9-028] | 1 (Herbicidal ratio of 5% or higher and lower than 20%) | 5 (Herbicidal ratio of 90% or more (almost completely withered)) | 5 (Herbicidal ratio of 90% or more (almost completely withered)) | 4 (Herbicidal ratio of 70% or higher and lower than 90%) | 3 (Herbicidal ratio of 40% or higher and lower than 70%) | 4 (Herbicidal ratio of 70% or higher and lower than 90%) | 5 (Herbicidal ratio of 90% or more (almost completely withered)) | 5 (Herbicidal ratio of 90% or more (almost completely withered)) | 5 (Herbicidal ratio of 90% or more (almost completely withered)) | 4 (Herbicidal ratio of 70% or higher and lower than 90%) | 5 (Herbicidal ratio of 90% or more (almost completely withered)) | 5 (Herbicidal ratio of 90% or more (almost completely withered)) | 3 (Herbicidal ratio of 40% or higher and lower than 70%) | 0 (Herbicidal ratio of 5% or lower (almost no effect)) |  |  |  | 
2 | CON=C(C)CC1(C)CC(O)=C(c2c(C)cc(C)cc2C)C1=O (mixture of isomers) [11-002] | 1 (Herbicidal ratio of 5% or higher and lower than 20%) | 3 (Herbicidal ratio of 40% or higher and lower than 70%) | 5 (Herbicidal ratio of 90% or more (almost completely withered)) | 2 (Herbicidal ratio of 20% or higher and lower than 40%) | 0 (Herbicidal ratio of 5% or lower (almost no effect)) | 0 (Herbicidal ratio of 5% or lower (almost no effect)) | 4 (Herbicidal ratio of 70% or higher and lower than 90%) | 2 (Herbicidal ratio of 20% or higher and lower than 40%) | 5 (Herbicidal ratio of 90% or more (almost completely withered)) | 0 (Herbicidal ratio of 5% or lower (almost no effect)) | 2 (Herbicidal ratio of 20% or higher and lower than 40%) | 5 (Herbicidal ratio of 90% or more (almost completely withered)) | 3 (Herbicidal ratio of 40% or higher and lower than 70%) | 0 (Herbicidal ratio of 5% or lower (almost no effect)) |  |  |  | 
3 | CON=C(C)CC1C(O)=C(c2c(C)cc(C)cc2C)C(=O)C1C (mixture of isomers) [12-002] | 1 (Herbicidal ratio of 5% or higher and lower than 20%) | 4 (Herbicidal ratio of 70% or higher and lower than 90%) | 5 (Herbicidal ratio of 90% or more (almost completely withered)) | 2 (Herbicidal ratio of 20% or higher and lower than 40%) | 0 (Herbicidal ratio of 5% or lower (almost no effect)) | 4 (Herbicidal ratio of 70% or higher and lower than 90%) | 5 (Herbicidal ratio of 90% or more (almost completely withered)) | 5 (Herbicidal ratio of 90% or more (almost completely withered)) | 5 (Herbicidal ratio of 90% or more (almost completely withered)) | 3 (Herbicidal ratio of 40% or higher and lower than 70%) | 3 (Herbicidal ratio of 40% or higher and lower than 70%) | 5 (Herbicidal ratio of 90% or more (almost completely withered)) | 4 (Herbicidal ratio of 70% or higher and lower than 90%) | 0 (Herbicidal ratio of 5% or lower (almost no effect)) |  |  |  | 
4 | CCC(CC1CC(O)=C(c2c(C)cc(Br)cc2OC)C1=O)=NOC (mixture of isomers) [13-001] | 0 (Herbicidal ratio of 5% or lower (almost no effect)) |  | 5 (Herbicidal ratio of 90% or more (almost completely withered)) | 5 (Herbicidal ratio of 90% or more (almost completely withered)) |  | 0 (Herbicidal ratio of 5% or lower (almost no effect)) | 5 (Herbicidal ratio of 90% or more (almost completely withered)) | 5 (Herbicidal ratio of 90% or more (almost completely withered)) | 5 (Herbicidal ratio of 90% or more (almost completely withered)) | 0 (Herbicidal ratio of 5% or lower (almost no effect)) | 5 (Herbicidal ratio of 90% or more (almost completely withered)) | 5 (Herbicidal ratio of 90% or more (almost completely withered)) |  |  | 4 (Herbicidal ratio of 70% or higher and lower than 90%) | 0 (Herbicidal ratio of 5% or lower (almost no effect)) | 2 (Herbicidal ratio of 20% or higher and lower than 40%) | 0 (Herbicidal ratio of 5% or lower (almost no effect))
5 | CON=C(CC1CC(O)=C(c2c(C)cc(C)cc2OC)C1=O)C1CC1 (mixture of isomers) [13-002] | 2 (Herbicidal ratio of 20% or higher and lower than 40%) |  | 5 (Herbicidal ratio of 90% or more (almost completely withered)) | 5 (Herbicidal ratio of 90% or more (almost completely withered)) |  | 4 (Herbicidal ratio of 70% or higher and lower than 90%) | 5 (Herbicidal ratio of 90% or more (almost completely withered)) | 5 (Herbicidal ratio of 90% or more (almost completely withered)) | 5 (Herbicidal ratio of 90% or more (almost completely withered)) | 5 (Herbicidal ratio of 90% or more (almost completely withered)) | 5 (Herbicidal ratio of 90% or more (almost completely withered)) | 5 (Herbicidal ratio of 90% or more (almost completely withered)) |  |  | 4 (Herbicidal ratio of 70% or higher and lower than 90%) | 3 (Herbicidal ratio of 40% or higher and lower than 70%) | 4 (Herbicidal ratio of 70% or higher and lower than 90%) | 0 (Herbicidal ratio of 5% or lower (almost no effect))
6 | CCC(CC1CC(O)=C(c2c(C)cc(C)cc2OC)C1=O)=NOC (mixture of isomers) [13-003] | 3 (Herbicidal ratio of 40% or higher and lower than 70%) |  | 5 (Herbicidal ratio of 90% or more (almost completely withered)) | 5 (Herbicidal ratio of 90% or more (almost completely withered)) |  | 3 (Herbicidal ratio of 40% or higher and lower than 70%) | 5 (Herbicidal ratio of 90% or more (almost completely withered)) | 5 (Herbicidal ratio of 90% or more (almost completely withered)) | 5 (Herbicidal ratio of 90% or more (almost completely withered)) | 4 (Herbicidal ratio of 70% or higher and lower than 90%) | 5 (Herbicidal ratio of 90% or more (almost completely withered)) | 5 (Herbicidal ratio of 90% or more (almost completely withered)) |  |  | 5 (Herbicidal ratio of 90% or more (almost completely withered)) | 0 (Herbicidal ratio of 5% or lower (almost no effect)) | 1 (Herbicidal ratio of 5% or higher and lower than 20%) | 0 (Herbicidal ratio of 5% or lower (almost no effect))
